The values that follow are results of earlier work, collected in PubChem BioAssay AID1259409 (Chemical Carcinogenesis Research Information System (CCRIS), 2018).

The data set has as its system rodent chemically induced tumor inhibition, incidence and multiplicity. Description: CCRIS tumor inhibitor studies.

As to `CC/C(=C(\c1ccccc1)c1ccc(OCCN(C)C)cc1)c1ccccc1`, the “tumour outcome (control, treated, inhibition, significance)” value was 26/36 (72%), 17/33 (52%), 28%, p<0.001 (Carcinogen: 1,2-DIMETHYLHYDRAZINE HYDROCHLORIDE, 306-37-6, Dose [Inhibitor]: 0, 0.5 UG/G/D IN DIET FOR 28 WK (STUDY DURATION: 28 WK), Route [Inhibitor]: ORAL, Species: RAT, Strain/Sex: SPRAGUE-DAWLEY/FEMALE, Target Tissue: Type of Lesion: COLON: TUMOR, Dose [Carcinogen]: 20 MG/KG BW 1/WK FOR 28 WK, Promoter: NONE USED); 60%, 30%, 50%, p<0.01 (Carcinogen: 3-METHYLCHOLANTHRENE, 56-49-5, Dose [Inhibitor]: 0, 50 UG/KG FOR DURATION OF STUDY (STUDY DURATION: LIFETIME), Route [Inhibitor]: SUBCUTANEOUS, Species: MOUSE, Strain/Sex: SWISS/FEMALE, Target Tissue: Type of Lesion: CERVIX: CARCINOMA, Dose [Carcinogen]: CARCINOGEN AND BEESWAX (1:3) IMPREGNATED THREAD INSERTED IN THE CANAL OF THE UTERINE CERVIX, Promoter: NONE USED); 62%, 27%, 56%, p<0.01 (Carcinogen: 3-METHYLCHOLANTHRENE, 56-49-5, Dose [Inhibitor]: 0, 50 UG/KG GIVEN TO OOPHERECTOMIZED MICE 3/WK FOR DURATION OF STUDY (STUDY DURATION: LIFETIME), Route [Inhibitor]: SUBCUTANEOUS, Species: MOUSE, Strain/Sex: SWISS/FEMALE, Target Tissue: Type of Lesion: CERVIX: CARCINOMA, Dose [Carcinogen]: CARCINOGEN AND BEESWAX (1:3) IMPREGNATED THREAD INSERTED IN THE CANAL OF THE UTERINE CERVIX, Promoter: NONE USED); 95%, 73%, 23%, p=0.015 (Carcinogen: 7,12-DIMETHYLBENZ[A]ANTHRACENE (57-97-6), Dose [Inhibitor]: 0.125 MG/KG DIET FOR 17 WKS (STUDY DURATION: 17 WKS), Route [Inhibitor]: DIET, Species: RAT, Strain/Sex: SPRAGUE-DAWLEY/FEMALE (20,18)/(20,18), Target Tissue: Type of Lesion: MAMMARY, Dose [Carcinogen]: 12.5 MG ONCE 1 WK AFTER START OF DIETS (STUDY DURATION: 17 WKS)); 10/21 (48%); 0%, 100%, p=0.0004 (Carcinogen: 7,12-DIMETHYLBENZ[A]ANTHRACENE (DMBA) (57-97-6), Dose [Inhibitor]: 50 MG/KG/D FOR 37 WK (STUDY DURATION: 37 WK), Route [Inhibitor]: ORAL GAVAGE, Species: MOUSE, Strain/Sex: SENCAR/FEMALE, Target Tissue: Type of Lesion: MAMMARY: CARCINOMA, Dose [Carcinogen]: 20 UG/D FOR 6 WKS (STUDY DURATION: 37 WKS), Promoter: MEDROXYPROGESTERONE ACETATE (71-58-9)); 13/23 (57%); 0/20 (0%), 100%, p=0.00003 (Carcinogen: 7,12-DIMETHYLBENZ[A]ANTHRACENE (DMBA) [57-97-6], Dose [Inhibitor]: 50 MG/KG/D FOR 52 WK (STUDY DURATION: 52 WK), Route [Inhibitor]: ORAL GAVAGE, Species: MOUSE, Strain/Sex: SENCAR/FEMALE, Target Tissue: Type of Lesion: MAMMARY: CARCINOMA, Dose [Carcinogen]: 20 UG/D FOR 6 WKS, Promoter: MEDROXYPROGESTERONE ACETATE (71-58-9)). The “tumour outcome (control, treated, inhibition, significance)” value was 3/3 (100%), 2/8 (25%), 75%, not calculated (Carcinogen: 17 BETA-ESTRADIOL, 50-28-2, Dose [Inhibitor]: 25 MG PELLETS CONTAINING 90% TAMOXIFEN ADMINISTERED ONCE AT BEGINNING OF STUDY AND ONCE AT 3.5 MO, ADMINISTERED CONCURRE, Route [Inhibitor]: SUBCUTANEOUS IMPLANT, Species: HAMSTER, Strain/Sex: SYRIAN/MALE, Target Tissue: Type of Lesion: KIDNEY: RENAL CARCINOMA, Dose [Carcinogen]: 25 MG PELLETS CONTAINING 90% ESTRADIOL ONCE AT BEGINNING OF STUDY AND ONCE AT 3.5 MO, Promoter: NONE USED); 100%, 100%, 0%, not significant (Carcinogen: ETHYL METHANESULFONATE, 62-50-0, Dose [Inhibitor]: 0, 50 MG/KG 1/WK FOR 4 WK BEGINNING POST CARCINOGEN TREATMENT (STUDY DURATION: 30 WK), Route [Inhibitor]: SUBCUTANEOUS, Species: RAT, Strain/Sex: WISTAR/FEMALE, Target Tissue: Type of Lesion: MAMMARY GLAND: CARCINOMA, Dose [Carcinogen]: 0.01 MOLAR SOLUTION IN DRINKING WATER FOR 12 WK, Promoter: NONE USED); 100%, 50%, 50%, p<0.01 (Carcinogen: ETHYL METHANESULFONATE, 62-50-0, Dose [Inhibitor]: 0, 50 MG/KG 1/WK FOR 4 WK CONCOMITANTLY WITH CARCINOGEN TREATMENT (STUDY DURATION: 30 WK), Route [Inhibitor]: SUBCUTANEOUS, Species: RAT, Strain/Sex: WISTAR/FEMALE, Target Tissue: Type of Lesion: MAMMARY GLAND: CARCINOMA, Dose [Carcinogen]: 0.01 MOLAR SOLUTION IN DRINKING WATER FOR 12 WK, Promoter: NONE USED); 11/44 (25%), 2/47 (4%), 84%, p<0.001 (Carcinogen: ETHYLNITROSOUREA [759-73-9], Dose [Inhibitor]: 420 MG/K DIET FOR 60 WK (STUDY DURATION: 60 WK), Route [Inhibitor]: DIET, Species: MOUSE, Strain/Sex: B6C3F1/MALE (?,44)/(?,47), Target Tissue: Type of Lesion: LIVER: HEPATOCELLULAR CARCINOMA, Dose [Carcinogen]: 120 UG/KG ONCE); 9/29 (31%), 0/30 (0%), 100%, not calculated (Carcinogen: N-ETHYL-N'-NITRO-N-NITROSOGUANADINE, 4245-77-6, Dose [Inhibitor]: 0, 70 MG/KG BW IN CHOLESTEROL IMPLANTED 1 WK POST CARCINOGEN DOSE, IMPLANTS REPLACED AT 6 TO 8 WK INTERVALS FOR THE DURA, Route [Inhibitor]: SUBCUTANEOUS IMPLANT, Species: RAT, Strain/Sex: DONRYU/FEMALE, Target Tissue: Type of Lesion: UTERUS: ADENOCARCINOMA, Dose [Carcinogen]: 20 MG/KG BW ONCE, Promoter: NONE USED); 9/29 (31%), 0/29 (0%), 100%, not calculated (Carcinogen: N-ETHYL-N'-NITRO-N-NITROSOGUANADINE, 4245-77-6, Dose [Inhibitor]: 0, 70 MG/KG BW IN CHOLESTEROL IMPLANTED 20 WKS POST CARCINOGEN DOSE, IMPLANTS REPLACED AT 6 TO 8 WK INTERVALS FOR DURATI, Route [Inhibitor]: SUBCUTANEOUS IMPLANT, Species: RAT, Strain/Sex: DONYRU/FEMALE, Target Tissue: Type of Lesion: UTERUS: ADENOCARCINOMA, Dose [Carcinogen]: 20 MG/KG BW ONCE, Promoter: NONE USED). The “tumour outcome (control, treated, inhibition, significance)” value by setting is: (Carcinogen: N-METHYL-N'-NITROSOUREA, 684-93-5, Dose [Inhibitor]: 0, 0.125 MG/KG IN DIET FOR DURATION OF STUDY BEGINNING 60 D PRIOR TO CARCINOGEN DOSE (STUDY DURATION: 240 D), Route [Inhibitor]: ORAL, Species: RAT, Strain/Sex: SPRAGUE-DAWLEY/FEMALE, Target Tissue: Type of Lesion: MAMMARY GLAND: TUMOR, Dose [Carcinogen]: 50 MG/KG BW ONCE, Promoter: NONE USED) 68%, 62%, 9%, not significant; (Carcinogen: N-METHYL-N'-NITROSOUREA, 684-93-5, Dose [Inhibitor]: 0, 0.25 MG/KG IN DIET FOR DURATION OF STUDY BEGINNING 60 D PRIOR TO CARCINOGEN DOSE (STUDY DURATION: 240 D), Route [Inhibitor]: ORAL, Species: RAT, Strain/Sex: SPRAGUE-DAWLEY/FEMALE, Target Tissue: Type of Lesion: MAMMARY GLAND: TUMOR, Dose [Carcinogen]: 50 MG/KG BW ONCE, Promoter: NONE USED) 80%, 25%, 69%, p<0.005; (Carcinogen: N-METHYL-N-NITROSOUREA, 684-93-5, Dose [Inhibitor]: 0, 0.2 MG/KG IN DIET FOR THE DURATION OF STUDY BEGINNING 7 D PRIOR TO CARCINOGEN DOSE (STUDY DURATION: 187 D), Route [Inhibitor]: ORAL, Species: RAT, Strain/Sex: SPRAGUE-DAWLEY/FEMALE, Target Tissue: Type of Lesion: MAMMARY GLAND: TUMOR, Dose [Carcinogen]: 50 MG/KG BW ONCE, Promoter: NONE USED) 100%, 100%, 0%, not significant.
